25 compounds from patent US4760136A, “Chartreusin derivatives and salts thereof” (Ishihara Sangyo Kaisha, Ltd., priority 1984, dated 1988) can be followed below.

Common to all, as to format: in vivo
Series [1] relates to P-388 leukemia cells. Description: Antitumor activity: P-388 leukemia cells inoculated intraperitoneally, drug administered intravenously, BDF1 mice. To be noted: BDF1 mice, P-388 i.p.; for response vs control in vivo at 80 mg/kg: dose f: 80 mg/kg × 3, i.v. on days 1, 5 and 9; for response vs control in vivo at 40 mg/kg / T/C (%) of MST: dose c: 40 mg/kg × 3, i.v. on days 1, 5 and 9; for response vs control in vivo at 20 mg/kg: dose b: 20 mg/kg × 3, i.v. on days 1, 5 and 9; for response vs control in vivo at 10 mg/kg: dose a: 10 mg/kg × 3, i.v. on days 1, 5 and 9. In outline:
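Drug dosing was intravenous on the first, fifth and ninth days after intraperitoneal inoculation of P-388 leukemia cells (1×10^6 per mouse) into BDF1 mice. Vehicles were physiological saline alone, or saline with small amounts of sodium carboxymethyl cellulose or Tween-80.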

The test system of series [2] is ddY mice. Description: Acute toxicity, intravenous (once), ddY mice. To be noted: formulated per Preparation Example. The text has this: (§1) In Table 7 are shown acute toxicity values (LD50, mg/kg) in ddY mice in the case of intravenously administering (once) each of the compounds of this invention in the form of preparations shown in the Preparation Examples shown in Table 7.

Series [3] can be described thus: Acute toxicity, intravenous (once), ddY mice. The conditions noted are these: mouse, in vivo, iv, formulated per Preparation Example.
Description: as §1

[4] abbreviates: Mus musculus, P388, iv, read-out: T/C (%) of MST.

Where a name gives a salt, the structure may show the parent alone.

With `COC1C(O)C(C)OC(OC2C(Oc3cccc4c(OC(=O)CCNC(=O)c5ccccc5)c5c(=O)oc6ccc(C)c7c(=O)oc(c34)c5c67)OC(C)C3OC(c4ccc(Br)cc4)OC32)C1O` (stereo not drawn) [compound 124], in series [1] (setting [4]), the response vs control in vivo at 80 mg/kg is 151%. In series [2], this compound returned a 50% lethal dose (LD50) not below 80 mg/kg.
In the case of `COC1C(O)C(C)OC(OC2C(Oc3cccc4c(OC(=O)C5CCCCC5NC(=O)C(F)(F)F)c5c(=O)oc6ccc(C)c7c(=O)oc(c34)c5c67)OC(C)C3OC(c4cccc(F)c4)OC32)C1O` (single isomer, unassigned) [Compound No. 117, 6-O-(N-Trifluoroacetyl-2-Amino-Cyclohexanecarbonyl)-3',4'-O-(m-Fluorobenzylidene)-Chartreusin], in series [1] (setting [4]), the response vs control in vivo at 40 mg/kg came out at 135%. This compound also had a median lethal dose (LD50) in series [2] not below 30 mg/kg.
With `COC1C(O)C(C)OC(OC2C(Oc3cccc4c(OC(=O)CN(C)C(=O)C(F)(F)F)c5c(=O)oc6ccc(C)c7c(=O)oc(c34)c5c67)OC(C)C3OC(c4ccccc4)OC32)C1O` (stereo not drawn) [compound 67], the response vs control in vivo at 80 mg/kg in series [1] (setting [4]) was 188%. Besides, in series [2], the 50% lethal dose (LD50) is on record as not below 60 mg/kg.
With `C=CCCC(=O)Oc1c2cccc(O[C@@H]3O[C@H](C)[C@@H]4OC(c5ccccc5)O[C@@H]4[C@H]3O[C@H]3O[C@H](C)[C@H](O)[C@H](OC)[C@H]3O)c2c2oc(=O)c3c(C)ccc4oc(=O)c1c2c43` (stereo partly drawn) [compound 213], the response vs control in vivo at 80 mg/kg in series [1] (setting [4]) came out at 160%. Moreover, the LD50 in series [2] was not below 80 mg/kg.
For `COC1C(O)C(C)OC(OC2C(Oc3cccc4c(OC(=O)CCNC(C)=O)c5c(=O)oc6ccc(C)c7c(=O)oc(c34)c5c67)OC(C)C3OC(c4ccccc4)OC32)C1O` (stereo not drawn) [Compound No. 29], in series [1] (setting [4]), the response vs control in vivo at 40 mg/kg came to 173% and the response vs control in vivo at 80 mg/kg worked out at 221%. The compound further yielded a 50% lethal dose (LD50) in series [2] not below 80 mg/kg.
Consider `COC1C(O)C(C)OC(OC2C(Oc3cccc4c(OC(=O)CCNC(=O)c5ccccc5)c5c(=O)oc6ccc(C)c7c(=O)oc(c34)c5c67)OC(C)C3OC(c4ccccc4)OC32)C1O` (stereo not drawn) [compound 65], for which the response vs control in vivo at 80 mg/kg in series [1] (setting [4]) is 175%. In series [2], this compound displayed an LD50 not below 60 mg/kg.
For `COC1C(O)C(C)OC(OC2C(Oc3cccc4c(OC(=O)CC(C)NC(=O)C(F)(F)F)c5c(=O)oc6ccc(C)c7c(=O)oc(c34)c5c67)OC(C)C3OC(c4ccccc4)OC32)C1O` (stereo not drawn) [compound 66], in that order: 171% and not below 60 mg/kg.
For `COC1C(O)C(C)OC(OC2C(Oc3cccc4c(OC(=O)CC(C)C)c5c(=O)oc6ccc(C)c7c(=O)oc(c34)c5c67)OC(C)C3OC(c4ccccc4)OC32)C1O` (stereo not drawn) [compound 227], in that order: 143% and not below 80 mg/kg.
With `COC1C(O)C(C)OC(OC2C(Oc3cccc4c(OC(=O)CCCCCNC(=O)OCc5ccccc5)c5c(=O)oc6ccc(C)c7c(=O)oc(c34)c5c67)OC(C)C3OC(c4ccccc4)OC32)C1O` (stereo not drawn) [compound 110], in series [1] (setting [4]), the response vs control in vivo at 40 mg/kg was found to be 154%. The same compound had an LD50 in series [2] not below 60 mg/kg.
With `COC1C(O)C(C)OC(OC2C(Oc3cccc4c(OC(=O)CCNC(=O)C(F)(F)F)c5c(=O)oc6ccc(C)c7c(=O)oc(c34)c5c67)OC(C)C3OC(c4ccccc4)OC32)C1O` (stereo not drawn) [Compound No. 28, 6-O-(N-Trifluoroacetyl-β-Alanyl)-3',4'-O-Benzylidene-Chartreusin], the response vs control in vivo at 80 mg/kg in series [1] (setting [4]) turned out to be 193%. Further, the response vs control in vivo at 120 mg/kg in series [1] (Mus musculus, P388, iv, dose h: 120 mg/kg × 3, i.v. on days 1, 5 and 9, read-out: T/C (%) of MST) stood at 227%. This compound had a 50% lethal dose (LD50) in series [2] not below 120 mg/kg.
For `COC1C(O)C(C)OC(OC2C(Oc3cccc4c(OC(=O)CCNC(=O)C(F)(F)F)c5c(=O)oc6ccc(C)c7c(=O)oc(c34)c5c67)OC(C)C3OC(c4ccccc4)OC32)C1O` (stereo not drawn) [Compound No. 41], in series [1], the “T/C (%) of MST” value was found to be 157%. In addition, the LD50 in series [2] is not below 100 mg/kg.
As for `COC1C(O)C(C)OC(OC2C(Oc3cccc4c(OC(=O)CCN)c5c(=O)oc6ccc(C)c7c(=O)oc(c34)c5c67)OC(C)C3OC(c4ccccc4)OC32)C1O` (stereo not drawn) [Compound No. 17], in series [1] (setting [4]), the response vs control in vivo at 20 mg/kg amounted to 206%. Further, in series [1], the “T/C (%) of MST” value was determined as 241%. This compound also showed an LD50 in series [2] not below 40 mg/kg.
`COC1C(O)C(C)OC(OC2C(Oc3cccc4c(OC(=O)C(C)CNC(=O)C(F)(F)F)c5c(=O)oc6ccc(C)c7c(=O)oc(c34)c5c67)OC(C)C3OC(c4cccc(F)c4)OC32)C1O` (stereo not drawn) [Compound No. 37, 6-O-(N-trifluoroacetyl-β-amino-isobutyryl)-3',4'-O-(m-fluorobenzylidene)-chartreusin]: the response vs control in vivo at 10 mg/kg in series [1] (setting [4]) was found to be 146%. This compound also came in with an LD50 in series [2] not below 30 mg/kg.
As for `COC1C(O)C(C)OC(OC2C(Oc3cccc4c(OC(=O)CCNC=O)c5c(=O)oc6ccc(C)c7c(=O)oc(c34)c5c67)OC(C)C3OC(c4ccccc4)OC32)C1O` (stereo not drawn) [Compound No. 40], in series [1] (setting [4]), the response vs control in vivo at 80 mg/kg came to 205%. In series [2], this compound showed an LD50 not below 100 mg/kg.
For `COC1C(O)C(C)OC(OC2C(Oc3cccc4c(OC(=O)CCNC=O)c5c(=O)oc6ccc(C)c7c(=O)oc(c34)c5c67)OC(C)C3OC(c4ccsc4)OC32)C1O` (stereo not drawn) [compound 89], in that order: 173% and not below 80 mg/kg.
With `COC1C(O)C(C)OC(OC2C(Oc3cccc4c(OC(=O)CCN)c5c(=O)oc6ccc(C)c7c(=O)oc(c34)c5c67)OC(C)C3OC(c4ccccc4)OC32)C1O` (stereo not drawn) [compound 80, 6-O-(β-alanyl)-3',4'-O-benzylidene-chartreusin hydrochloride], the response vs control in vivo at 80 mg/kg in series [1] (setting [4]) stood at 184%. Moreover, the “T/C (%) of MST” value in series [1] (hydrochloride) stood at 139%. The same compound displayed a 50% lethal dose (LD50) in series [2] (hydrochloride) not below 80 mg/kg.
With `COC1C(O)C(C)OC(OC2C(Oc3cccc4c(OC(=O)CCCNC(=O)C(F)(F)F)c5c(=O)oc6ccc(C)c7c(=O)oc(c34)c5c67)OC(C)C3OC(c4ccc(F)cc4)OC32)C1O` (stereo not drawn) [Compound No. 57], in series [1] (setting [4]), the response vs control in vivo at 40 mg/kg is 162% and the response vs control in vivo at 80 mg/kg was determined as 208%. The same compound registered an LD50 in series [2] not below 80 mg/kg.
`COC1C(O)C(C)OC(OC2C(Oc3cccc4c(OC(=O)C5CCCCC5NC(=O)C(F)(F)F)c5c(=O)oc6ccc(C)c7c(=O)oc(c34)c5c67)OC(C)C3OC(c4ccccc4)OC32)C1O` (single isomer, unassigned) [Compound No. 26, 6-O-(N-Trifluoroacetyl-2-Amino-Cyclohexanecarbonyl)-3',4'-O-Benzylidene-Chartreusin]: the response vs control in vivo at 20 mg/kg in series [1] (setting [4]) amounted to 195%. The “T/C (%) of MST” value in series [1] is 220%. The compound also had an LD50 in series [2] not below 40 mg/kg.
With `COC1C(O)C(C)OC(OC2C(Oc3cccc4c(OC(=O)C(C)CNC(=O)C(F)(F)F)c5c(=O)oc6ccc(C)c7c(=O)oc(c34)c5c67)OC(C)C3OC(c4cccc(F)c4)OC32)C1O` (stereo not drawn) [compound 68], in series [1] (setting [4]), the response vs control in vivo at 40 mg/kg was found to be 148% and the response vs control in vivo at 80 mg/kg came out at 210%. In series [2], this compound registered an LD50 not below 80 mg/kg.
With `COC1C(O)C(C)OC(OC2C(Oc3cccc4c(OC(=O)C5CC5)c5c(=O)oc6ccc(C)c7c(=O)oc(c34)c5c67)OC(C)C3OC(c4ccccc4)OC32)C1O` (stereo not drawn) [compound 230], in series [1] (setting [4]), the response vs control in vivo at 80 mg/kg amounted to 144%. For the same compound, the LD50 in series [2] was not below 80 mg/kg.
As for `COC(=O)c1ccc(C(=O)Oc2c3cccc(O[C@@H]4O[C@H](C)[C@@H]5OC(c6ccco6)O[C@@H]5[C@H]4O[C@H]4O[C@H](C)[C@H](O)[C@H](OC)[C@H]4O)c3c3oc(=O)c4c(C)ccc5oc(=O)c2c3c54)cc1` (stereo partly drawn) [compound 211], in series [1] (setting [4]), the response vs control in vivo at 80 mg/kg was determined as 176%. Moreover, the LD50 in series [3] was not below 80 mg/kg.
For the compound `COC1C(O)C(C)OC(OC2C(Oc3cccc4c(OC(=O)CCN5CCOCC5)c5c(=O)oc6ccc(C)c7c(=O)oc(c34)c5c67)OC(C)C3OC(c4ccccc4)OC32)C1O` (stereo not drawn) [compound 32], in series [1] (setting [4]), the response vs control in vivo at 10 mg/kg came to 146% and the response vs control in vivo at 20 mg/kg was 186%. This compound returned a 50% lethal dose (LD50) in series [3] not below 40 mg/kg.
Consider `COC1C(O)C(C)OC(OC2C(Oc3cccc4c(OC(=O)C(CN)C(C)C)c5c(=O)oc6ccc(C)c7c(=O)oc(c34)c5c67)OC(C)C3OC(c4ccccc4)OC32)C1O` (stereo not drawn) [compound 35, 6-O-(α-isopropyl-β-alanyl)-3',4'-O-benzylidene-chartreusin phosphate], for which the response vs control in vivo at 40 mg/kg in series [1] (setting [4]) came to 173%. Besides, the LD50 in series [3] is not below 40 mg/kg.
`CO[C@H]1[C@@H](O)[C@@H](C)O[C@H](O[C@H]2[C@H](Oc3cccc4c(OC(=O)COc5ccccc5)c5c(=O)oc6ccc(C)c7c(=O)oc(c34)c5c67)O[C@H](C)[C@@H]3OC(C)(C)O[C@@H]32)[C@@H]1O` [compound 205]: in series [1] (setting [4]), the response vs control in vivo at 40 mg/kg came out at 153% and the response vs control in vivo at 80 mg/kg came out at 173%. In addition, in series [3], the LD50 was not below 80 mg/kg.
For `COC1C(O)C(C)OC(OC2C(Oc3cccc4c(OC(=O)CC[S+](C)[O-])c5c(=O)oc6ccc(C)c7c(=O)oc(c34)c5c67)OC(C)C3OC(c4ccccc4)OC32)C1O` (stereo not drawn) [Compound No. 150], in series [1] (setting [4]), the response vs control in vivo at 20 mg/kg was 200% and the response vs control in vivo at 40 mg/kg came to 205%. The compound also showed an LD50 in series [3] not below 40 mg/kg.

In general, LD50 refers to the dose at which mortality reaches 50%.
